System: Plasmopara viticola
Assay: 72 h preventive treatment of vine plants against vine downy mildew, Abbott efficacy, Tammes and Colby analysis
Assay type: in vivo
[1] = Compound Ia share of the mixture, or Compound Ia alone
[2] = tolylfluanid share of the mixture, or tolylfluanid alone

O=C(NCc1ncc(C(F)(F)F)cc1Cl)c1c(Cl)cccc1Cl [Compound Ia, 2,6-dichloro-N-{[3-chloro-5-(trifluoromethyl)-2-pyridinyl]methyl}benzamide]
ED70: Practical doses for 70% efficacy, dose of Compound Ia [1]: 27 µg/mL | ED90: Practical doses for 90% efficacy, dose of Compound Ia [1]: 65 µg/mL

Cc1ccc(N(SC(F)(Cl)Cl)S(=O)(=O)N(C)C)cc1 [Tolylfluanid, N-dichlorofluoromethylthio-N′,N′-dimethyl-N-p-tolylsulfamide]
ED70: Practical doses for 70% efficacy, dose of tolylfluanid [2]: 231.4 µg/mL | ED90: Practical doses for 90% efficacy, dose of tolylfluanid [2]: 533.6 µg/mL

From patent US20070072829A1, “Fungicidal composition comprising a pyridylmethylbenzamide derivative and a sulfamide derivative” (priority 2003, published 2007)
